These results are taken from PMC12073402, “A Selective MAP3K1 Inhibitor Facilitates Discovery of NPM1 as a Member of the Network” (Molecules, 2025).

One may read the inhibition as the change of the read-out against control, counted positive when it falls. A higher inhibition goes with a response far below the control. Usually % Inhibition stands for how much of the control response was suppressed. High values mean a response far below the control, low ones a response near the control.

Test in all cases: KiNativ kinome profiling in PANC-1 lysate
Format in all cases: binding

In test [1] the target is T1, Erk2 (Homo sapiens, UniProt P28482).
T1 construct: endogenous in cells; host or cells: PANC-1 lysate
As to conditions: Lys2. The essentials:
(§1)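 PANC-1 lysates were incubated with 5 μM inhibitor or DMSO, then labeled with a desthiobiotin-ATP acyl-phosphate probe that biotinylates conserved kinase lysines. Tryptic peptides were streptavidin-enriched and quantified by LC-MS/MS, reported as % change in MS signal from duplicate treated and duplicate control samples.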

The target in test [2] is T2, PIK3CB (Homo sapiens, UniProt P42338).
T2 construct: endogenous in cells; host or cells: PANC-1 cell lysate
As to conditions: ATP. The essentials: as §1

The target in test [3] is T3, PIK3C3 (Homo sapiens, UniProt Q8NEB9).
T3 construct: endogenous in cells; host or cells: PANC-1 cell lysate
The settings on record: ATP. The method, boiled down: as §1

Test [4] concerns the target T4, CK2a1 (Homo sapiens, UniProt P68400).
T4 construct: endogenous in cells; host or cells: PANC-1 cell lysate
As to conditions: Protein Kinase Domain. The method, boiled down:
as §1

Test [5] addresses T5, PKD3 (Homo sapiens, UniProt O94806).
T5 construct: endogenous in cells; host or cells: PANC-1 cell lysate
T5 sequence (O94806 1-890): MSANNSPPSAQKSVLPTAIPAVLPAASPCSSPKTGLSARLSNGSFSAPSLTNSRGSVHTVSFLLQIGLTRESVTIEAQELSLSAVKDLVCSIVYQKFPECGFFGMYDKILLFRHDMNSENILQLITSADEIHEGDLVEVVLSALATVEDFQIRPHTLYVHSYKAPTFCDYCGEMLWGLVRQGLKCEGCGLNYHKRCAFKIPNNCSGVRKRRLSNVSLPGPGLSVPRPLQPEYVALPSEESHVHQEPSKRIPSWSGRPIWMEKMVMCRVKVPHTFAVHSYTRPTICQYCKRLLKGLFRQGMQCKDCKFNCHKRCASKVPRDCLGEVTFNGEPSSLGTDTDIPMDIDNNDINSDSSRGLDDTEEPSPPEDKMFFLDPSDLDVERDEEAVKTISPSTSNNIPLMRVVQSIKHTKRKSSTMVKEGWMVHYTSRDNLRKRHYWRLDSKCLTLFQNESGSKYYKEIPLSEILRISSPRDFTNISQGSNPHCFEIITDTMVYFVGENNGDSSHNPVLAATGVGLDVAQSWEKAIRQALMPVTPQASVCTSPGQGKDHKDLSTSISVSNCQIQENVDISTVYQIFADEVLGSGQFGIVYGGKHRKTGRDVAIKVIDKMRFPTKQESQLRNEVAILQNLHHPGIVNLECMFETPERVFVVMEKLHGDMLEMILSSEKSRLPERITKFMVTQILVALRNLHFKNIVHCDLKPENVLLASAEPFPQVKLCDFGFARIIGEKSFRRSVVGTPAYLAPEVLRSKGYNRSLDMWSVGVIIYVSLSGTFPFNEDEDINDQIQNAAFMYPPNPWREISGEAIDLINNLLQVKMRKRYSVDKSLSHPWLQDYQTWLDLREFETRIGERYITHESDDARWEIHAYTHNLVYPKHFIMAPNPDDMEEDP
The method, boiled down: as §1

The test system of test [6] is TAO1, TAO3. The settings on record: 5 µM; Lys2; DIKAGNILLTEPGQVK
The method, boiled down: as §1

Test [7] has as its system MST3, MST4, YSK1. As to conditions: 5 µM; ATP Loop; LADFGVAGQLTDTQIKR
The essentials: as §1

The target in test [8] is T6, MLKL (Homo sapiens, UniProt Q8NB16).
T6 construct: endogenous in cells; host or cells: PANC-1
As to conditions: Lys1. The method, boiled down:
as §1

T2 sequence (P42338 whole entry): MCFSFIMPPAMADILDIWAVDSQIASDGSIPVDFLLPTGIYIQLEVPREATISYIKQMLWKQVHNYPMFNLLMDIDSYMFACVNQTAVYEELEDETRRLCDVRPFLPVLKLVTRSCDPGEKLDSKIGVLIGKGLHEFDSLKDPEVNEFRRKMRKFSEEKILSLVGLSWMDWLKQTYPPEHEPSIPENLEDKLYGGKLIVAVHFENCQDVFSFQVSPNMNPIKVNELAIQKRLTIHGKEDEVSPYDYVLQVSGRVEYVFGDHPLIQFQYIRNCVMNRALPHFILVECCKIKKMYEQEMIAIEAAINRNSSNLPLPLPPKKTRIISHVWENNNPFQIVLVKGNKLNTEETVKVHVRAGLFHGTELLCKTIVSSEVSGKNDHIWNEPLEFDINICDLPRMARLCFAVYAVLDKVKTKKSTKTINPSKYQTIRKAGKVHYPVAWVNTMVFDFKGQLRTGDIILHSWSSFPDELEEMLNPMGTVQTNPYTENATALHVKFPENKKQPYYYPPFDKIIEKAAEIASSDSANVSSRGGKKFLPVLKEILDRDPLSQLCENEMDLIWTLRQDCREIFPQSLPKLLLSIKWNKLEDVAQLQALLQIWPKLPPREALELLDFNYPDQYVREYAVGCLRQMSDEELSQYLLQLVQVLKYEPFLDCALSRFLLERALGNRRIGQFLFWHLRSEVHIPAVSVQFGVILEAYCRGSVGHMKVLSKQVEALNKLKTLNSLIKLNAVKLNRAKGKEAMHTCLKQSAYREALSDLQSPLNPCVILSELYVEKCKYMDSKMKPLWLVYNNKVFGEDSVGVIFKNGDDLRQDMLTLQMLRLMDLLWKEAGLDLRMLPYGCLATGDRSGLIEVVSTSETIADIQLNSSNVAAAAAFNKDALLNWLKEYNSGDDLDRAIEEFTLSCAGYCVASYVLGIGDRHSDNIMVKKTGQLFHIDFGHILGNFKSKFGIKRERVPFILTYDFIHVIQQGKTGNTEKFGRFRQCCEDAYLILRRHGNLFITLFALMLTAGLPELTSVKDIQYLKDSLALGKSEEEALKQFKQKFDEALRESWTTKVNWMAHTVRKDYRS
T2 sequence (P27986 whole entry partner): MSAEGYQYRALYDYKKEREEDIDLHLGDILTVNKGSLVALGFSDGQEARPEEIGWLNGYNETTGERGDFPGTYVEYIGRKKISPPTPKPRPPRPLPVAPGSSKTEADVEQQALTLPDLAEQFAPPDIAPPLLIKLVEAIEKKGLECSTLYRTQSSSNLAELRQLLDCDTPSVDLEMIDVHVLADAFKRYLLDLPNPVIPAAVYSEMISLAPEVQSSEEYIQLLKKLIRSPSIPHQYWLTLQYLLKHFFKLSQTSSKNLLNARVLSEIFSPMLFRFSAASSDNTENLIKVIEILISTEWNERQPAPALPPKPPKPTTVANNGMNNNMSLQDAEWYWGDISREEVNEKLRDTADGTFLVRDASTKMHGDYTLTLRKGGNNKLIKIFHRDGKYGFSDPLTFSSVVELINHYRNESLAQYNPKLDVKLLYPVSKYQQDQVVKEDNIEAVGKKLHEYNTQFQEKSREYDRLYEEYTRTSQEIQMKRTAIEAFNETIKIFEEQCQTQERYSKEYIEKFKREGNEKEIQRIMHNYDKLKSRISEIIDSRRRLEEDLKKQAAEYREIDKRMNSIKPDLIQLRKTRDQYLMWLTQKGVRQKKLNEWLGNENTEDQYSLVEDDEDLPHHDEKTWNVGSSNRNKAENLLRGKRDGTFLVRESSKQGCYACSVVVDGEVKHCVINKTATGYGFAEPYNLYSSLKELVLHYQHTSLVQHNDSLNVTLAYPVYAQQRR
T3 sequence (Q8NEB9 whole entry): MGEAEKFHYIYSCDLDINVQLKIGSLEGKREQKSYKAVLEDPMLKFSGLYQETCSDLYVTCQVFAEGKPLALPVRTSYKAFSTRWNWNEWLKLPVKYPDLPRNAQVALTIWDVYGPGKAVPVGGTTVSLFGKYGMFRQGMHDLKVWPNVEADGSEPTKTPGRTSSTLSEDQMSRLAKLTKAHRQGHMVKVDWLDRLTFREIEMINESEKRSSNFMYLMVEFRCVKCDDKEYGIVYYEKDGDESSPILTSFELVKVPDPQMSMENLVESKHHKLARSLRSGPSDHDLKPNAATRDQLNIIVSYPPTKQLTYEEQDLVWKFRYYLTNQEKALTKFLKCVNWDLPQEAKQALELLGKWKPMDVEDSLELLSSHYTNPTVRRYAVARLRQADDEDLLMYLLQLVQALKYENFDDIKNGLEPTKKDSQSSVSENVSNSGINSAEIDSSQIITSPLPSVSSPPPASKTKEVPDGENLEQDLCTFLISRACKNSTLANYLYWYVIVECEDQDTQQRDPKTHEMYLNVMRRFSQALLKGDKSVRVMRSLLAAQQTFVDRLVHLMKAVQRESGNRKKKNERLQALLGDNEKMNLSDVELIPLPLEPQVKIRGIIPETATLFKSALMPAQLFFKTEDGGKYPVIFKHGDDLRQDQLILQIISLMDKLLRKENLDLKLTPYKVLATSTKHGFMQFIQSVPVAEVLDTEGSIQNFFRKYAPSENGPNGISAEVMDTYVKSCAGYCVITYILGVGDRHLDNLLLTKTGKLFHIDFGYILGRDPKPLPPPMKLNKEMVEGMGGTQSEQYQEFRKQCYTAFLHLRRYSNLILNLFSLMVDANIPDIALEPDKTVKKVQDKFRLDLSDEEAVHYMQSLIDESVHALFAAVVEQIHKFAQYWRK
T1 sequence (P28482 whole entry): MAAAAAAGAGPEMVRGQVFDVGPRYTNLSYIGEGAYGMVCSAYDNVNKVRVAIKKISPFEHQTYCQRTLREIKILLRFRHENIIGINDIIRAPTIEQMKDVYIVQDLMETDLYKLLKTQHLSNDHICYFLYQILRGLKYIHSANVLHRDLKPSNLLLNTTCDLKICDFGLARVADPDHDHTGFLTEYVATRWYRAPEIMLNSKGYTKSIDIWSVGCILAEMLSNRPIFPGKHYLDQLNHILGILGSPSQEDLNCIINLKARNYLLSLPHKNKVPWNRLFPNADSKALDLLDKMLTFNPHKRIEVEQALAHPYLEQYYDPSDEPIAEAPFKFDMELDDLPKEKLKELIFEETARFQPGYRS
T4 sequence (P68400 whole entry): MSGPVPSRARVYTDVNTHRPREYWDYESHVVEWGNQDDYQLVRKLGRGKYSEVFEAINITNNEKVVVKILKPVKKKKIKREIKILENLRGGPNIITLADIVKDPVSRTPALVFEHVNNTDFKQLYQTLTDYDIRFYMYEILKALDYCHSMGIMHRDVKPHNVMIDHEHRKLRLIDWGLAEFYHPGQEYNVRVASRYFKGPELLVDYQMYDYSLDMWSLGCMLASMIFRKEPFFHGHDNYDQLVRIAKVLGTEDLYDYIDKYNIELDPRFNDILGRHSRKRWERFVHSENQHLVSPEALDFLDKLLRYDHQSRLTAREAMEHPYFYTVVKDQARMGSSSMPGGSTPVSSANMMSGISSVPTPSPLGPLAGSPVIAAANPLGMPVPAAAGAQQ
T6 sequence (Q8NB16 whole entry): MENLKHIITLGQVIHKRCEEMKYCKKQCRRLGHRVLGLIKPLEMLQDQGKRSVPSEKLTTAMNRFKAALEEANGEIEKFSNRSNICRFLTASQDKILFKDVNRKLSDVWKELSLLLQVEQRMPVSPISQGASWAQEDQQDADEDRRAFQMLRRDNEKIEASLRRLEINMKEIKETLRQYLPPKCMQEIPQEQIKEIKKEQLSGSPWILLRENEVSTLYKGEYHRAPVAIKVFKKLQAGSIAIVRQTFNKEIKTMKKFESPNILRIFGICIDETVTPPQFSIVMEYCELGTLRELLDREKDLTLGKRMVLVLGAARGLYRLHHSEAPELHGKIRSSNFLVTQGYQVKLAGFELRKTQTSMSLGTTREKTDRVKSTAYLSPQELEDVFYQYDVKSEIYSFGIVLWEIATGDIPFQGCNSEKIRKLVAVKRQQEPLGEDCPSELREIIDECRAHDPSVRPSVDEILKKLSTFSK

Turning to `Cn1cc(-c2cnc3ccc(NC(=O)Nc4ccc(F)c(C(F)(F)F)c4)cc3n2)cn1` [51-106, 1-(4-Fluoro-3-(trifluoromethyl)phenyl)-3-(3-(1-methyl-1H-pyrazol-4-yl)quinoxalin-6-yl)urea], the inhibition at 5 µM was no more than 0% in test [1]; 1.7% in test [2] (VFGEDSVGVIFKNGDDLR); 31.4% in test [2] (VFGEDSVGVIFKNGDDLRQDMLTLQMLR); 4.9% in test [3] (TEDGGKYPVIFKHGDDLR); no more than 0% in test [3] (TEDGGKYPVIFKHGDDLRQDQLILQIISLMDK); no more than 0% in test [4]. In addition, the inhibition at 5 µM in test [5] (Lys1, DVAIKVIDK) was 27%; in test [5] (Lys2, NIVHCDLKPENVLLASAEPFPQVK), no more than 0%; in test [8], no more than 0%. The “% Inhibition” value in test [5] (5 µM, Lys1, DVAIKVIDK) is listed as 27.0%; in test [6] it was 4.9%; in test [7] it was “NB (NB = No Binding (≤ 0))”.
